Test results as given in US6982258B2, “Low-calcemic oxime analogs of 1α,25-dihydroxy vitamin D3” (Cytochroma Inc., priority 2001, dated 2006).

Molecular target: T1, CYP24 (Homo sapiens, UniProt Q07973)
T1 construct: When the HPK1A-ras cells were 80-90% confluent, add 1 μL 10^−5 M 1,25(OH)2D3; endogenous in cells; host or cells: HPK1A-ras cells induced with 10^-8 M 1,25(OH)2D3
T1 sequence (Q07973 36-514): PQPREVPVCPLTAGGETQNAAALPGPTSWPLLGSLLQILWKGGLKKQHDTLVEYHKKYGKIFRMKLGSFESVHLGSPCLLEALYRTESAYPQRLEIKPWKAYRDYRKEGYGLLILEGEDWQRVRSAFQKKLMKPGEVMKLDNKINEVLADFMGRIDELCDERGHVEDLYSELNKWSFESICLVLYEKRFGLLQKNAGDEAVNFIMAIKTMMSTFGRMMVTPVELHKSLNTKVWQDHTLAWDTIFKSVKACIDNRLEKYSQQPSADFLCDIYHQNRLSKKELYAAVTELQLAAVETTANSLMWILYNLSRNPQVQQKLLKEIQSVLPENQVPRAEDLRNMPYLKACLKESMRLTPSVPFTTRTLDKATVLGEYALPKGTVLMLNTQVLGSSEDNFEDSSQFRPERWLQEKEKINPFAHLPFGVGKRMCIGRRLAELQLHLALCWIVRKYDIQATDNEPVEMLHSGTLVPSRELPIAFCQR
Assay: CYP24 enzyme assay (induced HPK1A-ras cells)
Format: cell-based
Conditions: ketoconazole as control standard
Description: CYP24 Enzyme Assay (Induced […] Cells)
• 1,25(OH)2D3 10^−5 M • [^3H]-1,25(OH)2D3 25,000 CPM/μL • HPK1A-ras cells • 48-well plate • Methanol • Dichlorimethane • Saturated KCI:KCI 30 g, H2O400 ml (ii) Procedure: • 1. Induction of HPK1A-ras cells (The day before assay) • When the HPK1A-ras cells were 80-90% confluent, add 1 μL 10^−5 M 1,25(OH)2D3 to 1 mL medium in the plate (final concentration is 10^−8 M). • 2. Preparation of cell suspension • After 18 to 20 hours induction, removed the medium and washed the cell twice with PBS. Then tripsinized the cells from plate, centrifuge (2,000 rpm, 5 min) and suspended cells pellet in DMEM medium+1% BSA. • Counted the cells and adjust cells density to 250,000/150 μL, add 150 μL cell suspension to each well in 48-well plate. (including 3 wells as no cell control, and 3 well cells without drug or inhibitor as control). • 3. Added 25 μL ketoconazole (final concentration 10^−5 M, 10^−6 M, 10^−7 M, 10^−8 M) or drugs into each designated well. Keep the plate in 37° C. for 10 min. • 4. Preparation of substrate • Took certain amount of DMEM+1% BSA medium (25*Well number+200)μL to a tube, added certain amount of ^3H-1,25(OH)2D3 (well number+2) μL and certain amount of 100 mM DPPD (well number/5)μL and mixed them by vortex. • 5. Incubation • Added 25 μL substrate to each well, incubated the plate at 37° C. for 3 hour. • Added 25 μL substrate to counting plate (2 well) as a total count. • 6. Lipid extraction and counting • Added 500 μL methanol to each well to stop the reaction, transfered them to tube • Added 250 μL dichloromethane and vortex. • Added 250 μL dichloromethane and 250 μL saturated KCI, and vortexed. • Centrifuged at 4000 rpm for 5 min. • Transfered 100 μL of aqueous phase (upper phase) to counting plastic counting plate. Added 600 μL of scintillation fluid to each well. Counted the plate in scintillation counter. • 7. Calculation enzyme activity • CPM of cell control after subtraction of CPM of NCC is as 100% enzyme activity. • Enzyme activity=(CPM in test compounds well−CPM in NCC well)/(CPM in Cell control−CPM in NCC well)* 100% • Dilution of Ketoconazole • Stock 10^−2 M
• Dilution of test compounds • Stock 10^−3 M

| Compound | inhibition of CYP24 activity compared to ketoconazole |
| --- | --- |
| C=C1/C(=C\C=C2/CCC[C@]3(C)C([C@H](C)CCC/C(=N\OC)C(C)(C)C)=CC[C@@H]23)C[C@@H](O)C[C@@H]1O [I(c)] | significantly greater inhibition of CYP24 than ketoconazole |
| C=CCO/N=C(\CCC[C@@H](C)C1=CC[C@H]2/C(=C/C=C3/C[C@@H](O)C[C@H](O)C3=C)CCC[C@]12C)C(C)(C)C [I(g)] | significantly greater inhibition of CYP24 than ketoconazole |
| C=C1/C(=C\C=C2/CCC[C@]3(C)C([C@H](C)CCC/C(=N\Oc4ccccc4)C(C)(C)C)=CC[C@@H]23)C[C@@H](O)C[C@@H]1O [I(i)] | significantly greater inhibition of CYP24 than ketoconazole |
| C=C1/C(=C\C=C2/CCC[C@]3(C)C([C@H](C)CCC/C(=N\O)C(C)(C)C)=CC[C@@H]23)C[C@@H](O)C[C@@H]1O [I(a)] | significantly greater inhibition of CYP24 than ketoconazole |
| C=C1/C(=C\C=C2/CCC[C@]3(C)C([C@H](C)CCC/C(=N\OCC)C(C)(C)C)=CC[C@@H]23)C[C@@H](O)C[C@@H]1O [I(e)] | significantly greater inhibition of CYP24 than ketoconazole |

Test system: not listed separately
Assay: Calcium excretion (hypercalcemia assay, rat urine)
Format: in vivo
Conditions: administered orally daily for one week
Description: As a measure of their safety in animals, compound of Formula I(a) was administered orally to rats daily for 1 week at a similar dose (0.5 microgram/Kg body weight) to calcitriol, using a procedure described previously (Posner G. H. et al. J. Med. Chem. 1999, 42, 3425-3435). A graph showing the effect of compound I(a) (indicated as BH 1625(NOH)) on calcium levels in rat urine in comparison to calcitriol (1α,25-Dihydroxy vitamin D3) is shown in FIG. 6.

| Compound | levels of calcium in the urine |
| --- | --- |
| C=C1/C(=C\C=C2/CCC[C@]3(C)[C@@H]([C@H](C)CCCC(C)(C)O)CC[C@@H]23)C[C@@H](O)C[C@@H]1O [calcitriol, 1α,25-Dihydroxy vitamin D3] | significant increase in calcium levels in the urine |
